Data set [1] in a line: PK analysis after i.v. administration in mice. Format: in vivo.
For a further data set, the system named is human monocytes (Mo). Description: Cross-tolerance toward TLR ligands in human monocytes (gene expression). Format: cell-based. As for the experimental part: To evaluate the effects of TMX on human cell activation, monocytes were isolated from buffy coats obtained from four different healthy donors. With respect to macrophage tolerance, cells were treated with Compound 2 (10 microM) up to 20 hours and then re-challenged with agonists/ligands of different TLRs (TLR2, TLR4, TLR5, TLR9, TLR7, etc. . . . ), including the TLR7 unconjugated ligand 1V209 (free pharmacophore) at a concentration of 10 microM.
Cell Culture and treatments. Monocytes (Mo) were obtained from buffycoats collected from healthy donors as previously described (Porta C et al, PNAS 2009). Cells were incubated in RPMI 1640 medium, containing 10% fetal bovine serum, 2 mM glutamine and 100 U/ml of penicillin-streptomycin. The concentrations for the different treatments were as follows: LPS (100 ng/ml) (Lipopolysaccharide from Salmonella Abortus Equi S-form, Alexis), CpG (1 microg/ml), Pam3CSK (2 microg/ml), Poly I:C (10 microg/ml), Loxorubine (100 microM), flagellin (100 ng/ml). To induce TMX tolerance, cells were incubated in the presence of TMX (10 microM) for 20 hrs, washed and maintained in RPMI medium for 2 hrs and then re-challenged with TMX (10 microM) for 4 hrs. To induce TMX-tolerization (T/M) cells were treated with TMX for 20 hrs, washed and then maintained in medium for additional 6 hours, without TMX re-challenge. To induce M1-activation cells were incubated in medium for 20 hrs, washed, left in medium for 2 hrs and finally stimulated with TMX (10 microM) for 4 hrs. Control cells (M/M) were cultured in medium for the entire period of the experiment. For gene expression analysis, total RNA was extracted from TMX treated and untreated cells with trizol (Invitrogen), according to the manufacturer's instructions. To analyze cytokines and chemokines production supernatants were collected 24 hrs after the second challenge with TMX.
Real-Time PCR. Total RNA was purified as previously described. Briefly, reverse transcription from 1 microgram of RNA was performed using a cDNA Archive kit (Applied Biosystem, NJ, USA). Real time PCR was performed using Power Syber Green PCR Master Mix (Applied Biosystem, NJ, USA) and detected by 7900HT Fast Real-Time System (Applied Biosystem, NJ, USA). Data were processed using the SDS2.2.2 software (Applied Biosystem, NJ, USA). Results were normalized to the expression of the housekeeping gene 8-actin and then expressed as folds of upregulation, with respect to the control cell population.

In the case of `COCCOc1nc(N)c2nc(O)n(Cc3ccc(C(=O)NCCOCCOCCOCCOCCOCCOCCn4cc(CCC(=O)O)nn4)cc3)c2n1` [Compound 2], in data set [1], the “AUC in comparison with Compound 3” value is given as “lower”, the “Cmax in comparison with Compound 3” value is listed as “lower”, the “clearance in comparison with Compound 3” value is “higher” and the “half life in comparison with Compound 3” value is recorded as “longer”. Also, the “TNFalpha, IL-1 beta, IL-6 and IL-12 gene expression in response to TLR ligands” value in the data set with human monocytes (Mo) (Mo tolerized by 20 hours pre-treatment, excluding Pam) is “inability to up-regulate”. Moreover, the “down-regulation of M1 marker IL-12p40” value with human monocytes (Mo) (TMX pretreatment, stimulation through TLRs other than TLR7) is reported as ~10 fold. Further, the “M2 gene induction, CCL17 in particular” value in the data set on human monocytes (Mo) (TMX treatment, TLR agonist re-challenge) is “strongly enhanced”. For the same molecule, in the data set on human monocytes (Mo) (tolerized Mo, but not IL-10), the “Th2-recruiting chemokines genes (CCL17, CCL22) on TLR engagement” value was “trigger the expression”.

The values above are taken from patent US20120083473A1, “TREATMENT OF CONDITIONS BY TOLL-LIKE RECEPTOR MODULATORS” (priority 2010, published 2012).
